The nature of data set [1]: Visual (color) stability of a cosmetic formulation. To be noted: for color of formulation: 0.1% resveratrol or 0.2% resveratrol^Pi in base formula. In kind it is physicochemical. The procedure:
Three base formulas are prepared, the control containing no resveratrol, the other two formulas being identical to the control but for one containing 0.1% unmodified resveratrol, and the other containing 0.2% of phosphorylated resveratrol (Resveratrol^Pi).
The color of the control base is white, and with addition of the resveratrols, it takes on a light beige color. Each formulation is observed once a week for a period of four weeks to determine the presence of a color change (indicative of changing color stability), under three different environmental conditions: 50° C., 4° C., and room temperature (RT).

Data set [2] relates to extractable fraction of human SC D-squame tape strippings (acid phosphatase present on the skin). The experiment in a line: Dephosphorylation of resveratrol^Pi by extractable fraction of stratum corneum D-squame tape strippings. To be noted: resveratrol^Pi 0.22 mg/ml or 0.47 mM, FIG. 3; for correlation (r) of amount with incubation time: N=15. The procedure: D-squame tape strippings were collected on the inner lower arm of one panelist. […] The extractable fraction was transferred to another vial and mixed with resveratrol^Pi stock-solution. The concentration of resveratrol^Pi during the incubation was 0.22 mg/ml or 0.47 mM. At various incubation time points a 25 μl aliquot of the incubation mixture was diluted in 25 μl 10 mM o-phosphoric acid and 50 μl of MeOH and injected onto the HPLC system.

A short description of data set [3]: Water solubility of resveratrol and resveratrol triphosphate. It counts as physicochemical. The method, then: The water solubility of resveratrol is tested at pH 7 in 1 mM potassium phosphate buffer at room temperature. Ten mg of resveratrol (M.W. 228.24) are suspended in 10 ml of buffer. This suspension, corresponding to a concentration of 1 g/l or 4.38 mM, is agitated for 24 hours in a rotary shaker at 25° C. in the dark. The sample is centrifuged at 14,000 rpm for 5 minutes and an OD of 6.26 is determined at 305 nm wavelength at which the ε mM of resveratrol has a value of 28.1. Assuming complete solubility of resveratrol, the OD that should have been obtained is 123.1 (4.38×28.1). With an observed OD of 6.26, the percentage of dissolved resveratrol is 5.1% (6.26×100/123.1) or […].
(§1) In contrast, the solubility and stability of the resveratrol triphosphate tested under the same conditions, in water of different pH, in the range of 4 to 9, at room temperature.

The test system of data set [4] is acid phosphatase from wheat germ. The experiment in a line: Enzymatic dephosphorylation of resveratrol^Pi by acid phosphatase, HPLC analysis. The conditions noted are these: resveratrol^Pi 1.6 mg/ml, acid phosphatase 0.056 U/ml, pH 5.5; FIG. 2. The procedure: The experimental conditions for the HPLC analysis of resveratrol are shown below.
Phosphorylated resveratrol was incubated in the presence of acid phosphatase from wheat germ (Sigma, P3627 lot 081K7071) in 0.147M (NH4)2SO4/0.81 mM MgCl2 pH 5.5. The concentration of resveratrol^Pi and acid phosphatase was 1.6 mg/ml and 0.056 U/ml respectively. Aliquots were taken at different time intervals and analysed by HPLC (conditions see above).

The nature of data set [5]: Stability of resveratrol triphosphate in solid and water solution form. In kind it is physicochemical.
Description: as §1

≈ marks a conversion by molar mass, not a printed value.

`Oc1ccc(/C=C/c2cc(O)cc(O)c2)cc1` [resveratrol]: the color of formulation entry is on record as “lt beige” in data set [1] (1 week, 4° C.); “lt beige” in data set [1] (1 week, 50° C.); “lt beige” in data set [1] (1 week, room temperature); “lt beige” in data set [1] (2 weeks, 4° C.); “lt beige” in data set [1] (2 weeks, 50° C.); “lt beige” in data set [1] (2 weeks, room temperature). Further, the color of formulation result in data set [1] (3 weeks, 4° C.) is recorded as “lt beige”; in data set [1] (3 weeks, 50° C.), “lt beige (vsl darker with sl top oxidation)”; in data set [1] (3 weeks, room temperature), “lt beige”; in data set [1] (4 weeks, 4° C.), “lt beige (sl lighter beige than RT)”; in data set [1] (4 weeks, 50° C.) it was “beige (sl darker than RT with top oxidation)”; in data set [1] (4 weeks, room temperature) it was “lt beige/beige”. Besides, the “correlation (r) of amount with incubation time” value in data set [2] worked out at 0.99. The compound also showed a solubility at 24 h in data set [3] (25 °C, pH 7, aqueous buffer, thermodynamic from solid) of 5.1 µg/mL (≈ 22.3 µM). In addition, the “percentage of dissolved resveratrol” value in data set [3] (pH 7, 1 mM potassium phosphate buffer, 1 g/l suspension, 24 hours, 25° C., OD at 305 nm) was found to be 5.1%.
resveratrol triphosphate: the “color development versus unmodified resveratrol” value in data set [1] (at the end of four weeks) was “less color development than the unmodified resveratrol”. Further, in data set [2], the “correlation (r) of amount with incubation time” value is recorded as −0.69. Further, in data set [2] (pH 5.6), the “conversion on incubation with extractable fraction of SC D-squame tape strippings (HPLC)” value is on record as “decreased gradually”. For the same compound, the “conversion on treatment with acid phosphatase (HPLC)” value in data set [4] is “decreased gradually”. The stability result in data set [5] is “stable in both solid and water solution form for periods in excess of one year”. In addition, the solubility in data set [3] (water of different pH, range 4 to 9, room temperature) is on record as more than 30 % w/v.
Take resveratrol diphosphate: in data set [4], the “incubation time at which the maximum amount is reached” value is on record as “around 85 minutes”.

The record behind these values is patent US8465973B2, “Topical compositions containing phosphorylated polyphenols” (Estee Lauder Coordination Center N.V., priority 2004, dated 2013).
